Measured values taken from patent US8796328B2, “TRPV1 antagonists” (AbbVie Inc., priority 2012, dated 2014).
pIC50: −log10 of the molar value.

Assays:
[1] = target: T1, human TRPV1 receptor (hTRPV1) (Homo sapiens (Human), UniProt Q8NER1); experiment: Acid activation assay (pH 5.0, FLIPR intracellular Ca2+); assay type: cell-based; settings: Table 2; 37.5 μM compound; percentage of maximal pH 5.0-induced response
rats = experiment: Rat tail immersion assay (noxious thermosensation, 55° C. water bath); assay type: in vivo; settings: rat, oral 100 μmol/kg, one hour post dosing, relative to vehicle
Description: Compounds were tested for their effects on noxious thermosensation using the tail immersion assay. Testing was performed one hour following oral administration of 100 μmol/kg of the compound in 10% ethanol/20% Tween-80/70% PEG-400 (2 mL/kg). Mophine (6 mg/kg) was administered interperitoneally (i.p.) using saline (2 mL/kg) as the vehicle. For testing, a circulating water bath was heated to 55° C. Thirty to sixty minutes post dosing, the rats were handled for a few seconds to calm them down and then cupped with their back against the testers hand at a slight angle with head facing away from tester. With rat in one hand and a 0.01 second stopwatch in the other hand, the tail was quickly immersed 6-8 cm in water bath or to a distance leaving 2-3 cm of tail out of water. The timer was started simultaneously. When the rat flinched or attempted withdrawal, timer was immediately stopped and the rat's tail was quickly removed from water bath. This response latency (in seconds) was recorded. Process was repeated 3 times with 3-4 minutes between readings for a final average.
For a given example, a percent increase in the average response latency (in seconds) for tail withdrawal relative to a vehicle control was determined % increase=[(tc−tv)/tv]×100%
tc=response time (in seconds) with oral dosing of compounds
tv=response time (in seconds) with oral dosing of vehicle
The % increases in tail withdrawal latency relative to vehicle control are divided into the following categories: […]

[2] = target: T1, human TRPV1 receptor (hTRPV1); experiment: Capsaicin activation assay (FLIPR intracellular Ca2+); assay type: cell-based; settings: Table 2; capsaicin-induced intracellular Ca2+ increase; read-out: human TRPV1 capsaicin IC50
Procedure, shortened: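 Recombinant HEK293 cells stably expressing hTRPV1, Calcium-4 dye loaded 90–120 min at room temperature, were preincubated with compound (12-point, one-third-log) for 3 min before capsaicin challenge. Peak FLIPR fluorescence minus baseline was normalised to capsaicin control response; IC50 from four-parameter logistic fit.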

T1 sequence (Q8NER1 whole entry): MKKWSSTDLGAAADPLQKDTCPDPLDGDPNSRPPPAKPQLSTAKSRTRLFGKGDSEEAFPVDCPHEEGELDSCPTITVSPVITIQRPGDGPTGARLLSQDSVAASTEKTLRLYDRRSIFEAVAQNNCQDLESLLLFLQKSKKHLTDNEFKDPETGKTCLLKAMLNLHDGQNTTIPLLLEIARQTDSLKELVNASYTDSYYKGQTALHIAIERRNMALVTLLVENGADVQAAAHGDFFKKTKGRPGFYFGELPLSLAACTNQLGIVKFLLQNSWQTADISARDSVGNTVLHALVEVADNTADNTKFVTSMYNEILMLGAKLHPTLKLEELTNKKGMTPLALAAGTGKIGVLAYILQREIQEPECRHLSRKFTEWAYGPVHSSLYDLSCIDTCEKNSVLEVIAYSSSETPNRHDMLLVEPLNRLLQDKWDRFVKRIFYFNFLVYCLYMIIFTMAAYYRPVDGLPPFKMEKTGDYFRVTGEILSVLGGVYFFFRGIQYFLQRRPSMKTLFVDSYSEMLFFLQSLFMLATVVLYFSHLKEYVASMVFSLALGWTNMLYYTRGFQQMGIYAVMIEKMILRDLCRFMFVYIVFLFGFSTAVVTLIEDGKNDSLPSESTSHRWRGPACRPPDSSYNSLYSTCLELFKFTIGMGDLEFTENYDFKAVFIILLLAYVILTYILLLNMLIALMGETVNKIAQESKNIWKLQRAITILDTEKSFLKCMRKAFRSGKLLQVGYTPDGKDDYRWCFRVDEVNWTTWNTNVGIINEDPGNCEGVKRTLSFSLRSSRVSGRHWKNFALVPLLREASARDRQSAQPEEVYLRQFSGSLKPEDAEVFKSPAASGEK

SMILES	human TRPV1 H+ (max % remain) [1]	% Increase in Tail Withdrawal Latency (rats)	pIC50 [2]
CC(=O)Nc1nc2c(Oc3cc(-c4ccc(C(F)(F)F)cc4)ncn3)cccc2s1 [A, reference compound]	10%	+++ (greater than or equal to 25% increase)	
CC(C)(C)c1ccc(Nc2ncnc3cc(-c4ncccc4C(F)(F)F)ccc23)cc1 [B, reference compound]	1%	+++ (greater than or equal to 25% increase)	
CC(C)(C)c1ccc2c(c1)CC[C@H]2NC(=O)Nc1cccc2[nH]cnc12 [C, reference compound]	1%	+++ (greater than or equal to 25% increase)	7.46
Cc1nc(Nc2cccc3c2C[C@H](O)CC3)oc1-c1ccc(C(F)(F)F)cc1 [D, reference compound]	3%	+++ (greater than or equal to 25% increase)	
Cc1cccnc1N1CC=C(C(=O)Nc2ccc(S(=O)(=O)C(F)(F)F)cc2)CC1 [E, reference compound]	2%	+++ (greater than or equal to 25% increase)	
